Laboratory results from PubChem BioAssay (NCI).
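Following 48 hours of exposure in 96-well plates, responses at five concentrations were used to interpolate endpoints linearly. TGI: total growth inhibition.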

Assays:
Experiment in all cases: NCI tumour cell line growth inhibition, 48 h
NCI/ADR-RES ovarian = test system: NCI/ADR-RES ovarian
MDA-N = test system: MDA-N
NCI-H226 lung = test system: NCI-H226 lung
K-562 leukemia = test system: K-562 leukemia
IGROV1 ovarian = test system: IGROV1 ovarian
RPMI-8226 leukemia = test system: RPMI-8226 leukemia
UACC-257 melanoma = test system: UACC-257 melanoma
A549 NSCLC = test system: A549 NSCLC
NCI-H23 lung = test system: NCI-H23 lung
U251 CNS = test system: U251 CNS
SNB-19 CNS = test system: SNB-19 CNS
SK-MEL-28 melanoma = test system: SK-MEL-28 melanoma
CAKI-1 renal = test system: CAKI-1 renal
SN12C renal = test system: SN12C renal
EKVX NSCLC = test system: EKVX NSCLC
HT29 colon = test system: HT29 colon
SF-539 CNS = test system: SF-539 CNS
TK-10 renal = test system: TK-10 renal
SK-OV-3 ovarian = test system: SK-OV-3 ovarian
PC-3 prostate = test system: PC-3 prostate
UACC-62 melanoma = test system: UACC-62 melanoma
SK-MEL-5 melanoma = test system: SK-MEL-5 melanoma
HL-60(TB) leukemia = test system: HL-60(TB) leukemia
OVCAR-3 ovarian = test system: OVCAR-3 ovarian
HOP-62 NSCLC = test system: HOP-62 NSCLC
A498 renal = test system: A498 renal
SW-620 colon = test system: SW-620 colon
MDA-MB-435 = test system: MDA-MB-435
MDA-MB-231 breast = test system: MDA-MB-231 breast
DU-145 prostate = test system: DU-145 prostate
HCT-116 colon = test system: HCT-116 colon
RXF 393 renal = test system: RXF 393 renal
MALME-3M melanoma = test system: MALME-3M melanoma
HCT-15 colon = test system: HCT-15 colon
OVCAR-5 ovarian = test system: OVCAR-5 ovarian
NCI-H460 lung = test system: NCI-H460 lung
T-47D breast = test system: T-47D breast
UO-31 renal = test system: UO-31 renal
M14 melanoma = test system: M14 melanoma
SR leukemia = test system: SR leukemia
LOX IMVI melanoma = test system: LOX IMVI melanoma
SF-268 CNS = test system: SF-268 CNS
NCI-H522 lung = test system: NCI-H522 lung
SF-295 CNS = test system: SF-295 CNS
SK-MEL-2 melanoma = test system: SK-MEL-2 melanoma
BT-549 breast = test system: BT-549 breast
SNB-75 CNS = test system: SNB-75 CNS
KM12 colon = test system: KM12 colon
HS 578T breast = test system: HS 578T breast
OVCAR-4 ovarian = test system: OVCAR-4 ovarian
786-0 renal = test system: 786-0 renal
ACHN renal = test system: ACHN renal
CCRF-CEM leukemia = test system: CCRF-CEM leukemia
OVCAR-8 ovarian = test system: OVCAR-8 ovarian
MCF7 breast = test system: MCF7 breast
COLO 205 colon = test system: COLO 205 colon
HOP-92 NSCLC = test system: HOP-92 NSCLC
HCC-2998 colon = test system: HCC-2998 colon
MOLT-4 leukemia = test system: MOLT-4 leukemia

Measured: TGI

O=S(=O)(O)c1ccc2c(N=Nc3c(O)ccc4ccccc34)cccc2c1
98.1 µM: K-562 leukemia
not listed: HCC-2998 colon | MOLT-4 leukemia
> 100 µM: all other assays above

CCCCCC(/C=C/[C@@H]1[C@@H](C(O)CCCCCC(=O)OC)C(=O)C[C@H]1O[Si](C)(C)C(C)(C)C)OCOCCOC (stereo partly specified)
30.5 µM: SK-MEL-5 melanoma
21.9 µM: UACC-257 melanoma
42.7 µM: A498 renal
31.6 µM: HOP-62 NSCLC | 786-0 renal
27.4 µM: U251 CNS | PC-3 prostate
32.2 µM: CAKI-1 renal
> 25.7 µM: RPMI-8226 leukemia
16.1 µM: HCT-116 colon | KM12 colon
45.7 µM: SN12C renal
48 µM: OVCAR-5 ovarian
29.3 µM: SW-620 colon
34 µM: SK-OV-3 ovarian
31.3 µM: TK-10 renal
> 68.2 µM: A549 NSCLC
> 24.5 µM: CCRF-CEM leukemia
> 47 µM: MCF7 breast
32.3 µM: NCI-H23 lung
31 µM: SF-539 CNS
28.1 µM: OVCAR-3 ovarian
22.2 µM: SNB-75 CNS
49.6 µM: COLO 205 colon
27.2 µM: HS 578T breast
39.8 µM: RXF 393 renal
29 µM: SNB-19 CNS
32.4 µM: SK-MEL-2 melanoma
28.9 µM: UO-31 renal
34.9 µM: NCI-H226 lung
28.6 µM: ACHN renal
51.8 µM: NCI/ADR-RES ovarian | T-47D breast
36.9 µM: DU-145 prostate
4.87 µM: MOLT-4 leukemia
18.8 µM: HT29 colon
28.4 µM: SF-268 CNS
37.6 µM: EKVX NSCLC
40.9 µM: OVCAR-4 ovarian
32.6 µM: SF-295 CNS
27.9 µM: MDA-MB-435
> 57 µM: HCC-2998 colon
42.8 µM: OVCAR-8 ovarian
14.5 µM: LOX IMVI melanoma | NCI-H522 lung
46.2 µM: HOP-92 NSCLC
24.4 µM: MDA-N
> 52 µM: K-562 leukemia
44.1 µM: MDA-MB-231 breast
24.8 µM: BT-549 breast
> 100 µM: NCI-H460 lung
27.5 µM: UACC-62 melanoma | HCT-15 colon
37.1 µM: M14 melanoma
30.6 µM: MALME-3M melanoma
20.9 µM: IGROV1 ovarian
33.3 µM: SK-MEL-28 melanoma
> 31.6 µM: SR leukemia

CSC1(Cc2ccccn2)C(=O)Nc2cccc([N+](=O)[O-])c21 (stereo unspecified)
not listed: K-562 leukemia | A498 renal | RXF 393 renal
> 100 µM: all other assays above
